{"source": "ChEMBL document CHEMBL1177848", "about": "“Synthesis of novel 6,6a,7,8-tetrahydro-5H-naphtho[1,2-e]pyrimido[4,5-b][1,4]diazepines under microwave irradiation as potential anti-tumor agents” (2010)", "key": {"[1]": {"tested_on": "BT-549", "experiment": "Growth inhibition of human BT549 cells at 1 uM after 48 hrs by sulforhodamine B assay", "assay_type": "functional, cell-based"}, "[2]": {"tested_on": "SK-MEL-5", "experiment": "Growth inhibition of human SK-MEL-5 cells after 48 hrs by sulforhodamine B assay", "assay_type": "functional", "conditions": "SK-MEL-5, 48 h"}, "[3]": {"tested_on": "ACHN", "experiment": "Growth inhibition of human ACHN cells at 1 uM after 48 hrs by sulforhodamine B assay", "assay_type": "functional, cell-based"}, "[4]": {"tested_on": "SF-539", "experiment": "Growth inhibition of human SF539 cells after 48 hrs by sulforhodamine B assay", "assay_type": "functional", "conditions": "SF-539, 48 h; for CC50: read-out: LC50 (the source's name)"}, "[5]": {"tested_on": "SNB-75", "experiment": "Growth inhibition of human SNB75 cells at 1 uM after 48 hrs by sulforhodamine B assay", "assay_type": "functional, cell-based"}, "[6]": {"tested_on": "DU-145", "experiment": "Growth inhibition of human DU145 cells after 48 hrs by sulforhodamine B assay", "assay_type": "functional", "conditions": "DU-145, 48 h"}, "[7]": {"tested_on": "OVCAR-8", "experiment": "Growth inhibition of human OVCAR8 cells after 48 hrs by sulforhodamine B assay", "assay_type": "functional", "conditions": "OVCAR-8, 48 h"}, "[8]": {"tested_on": "NCI-H322M", "experiment": "Growth inhibition of human […] cells after 48 hrs by sulforhodamine B assay", "assay_type": "functional"}, "[9]": {"tested_on": "HOP-62", "experiment": "Growth inhibition of human HOP62 cells after 48 hrs by sulforhodamine B assay", "assay_type": "functional", "conditions": "HOP-62, 48 h"}, "[10]": {"tested_on": "SK-MEL-2", "experiment": "Growth inhibition of human SK-MEL-2 cells after 48 hrs by sulforhodamine B assay", "assay_type": "functional", "conditions": "SK-MEL-2, 48 h"}, "[11]": {"tested_on": "786-0", "experiment": "Growth inhibition of human 786-0 cells after 48 hrs by sulforhodamine B assay", "assay_type": "functional", "conditions": "786-0, 48 h"}, "[12]": {"tested_on": "HCC 2998", "experiment": "Growth inhibition of human HCC2998 cells after 48 hrs by sulforhodamine B assay", "assay_type": "functional", "conditions": "HCC 2998, 48 h"}, "[13]": {"experiment": "Growth inhibition of human SF530 cells after 48 hrs by sulforhodamine B assay", "assay_type": "functional", "conditions": "SF530, 48 h"}, "[14]": {"tested_on": "SK-MEL-28", "experiment": "Growth inhibition of human SK-MEL-28 cells after 48 hrs by sulforhodamine B assay", "assay_type": "functional", "conditions": "SK-MEL-28, 48 h"}, "[15]": {"tested_on": "A549", "experiment": "Growth inhibition of human A549 cells after 48 hrs by sulforhodamine B assay", "assay_type": "functional", "conditions": "A549, 48 h"}, "[16]": {"tested_on": "K562", "experiment": "Growth inhibition of human K562 cells after 48 hrs by sulforhodamine B assay", "assay_type": "functional", "conditions": "K562, 48 h"}, "[17]": {"tested_on": "Hs-578T", "experiment": "Growth inhibition of human Hs 578T cells after 48 hrs by sulforhodamine B assay", "assay_type": "functional"}, "[18]": {"tested_on": "SNB-75", "experiment": "Growth inhibition of human SNB75 cells after 48 hrs by sulforhodamine B assay", "assay_type": "functional", "conditions": "SNB-75, 48 h"}, "[19]": {"tested_on": "CCRF-CEM", "experiment": "Growth inhibition of human CCRF-CEM cells after 48 hrs by sulforhodamine B assay", "assay_type": "functional"}, "[20]": {"tested_on": "HL-60", "experiment": "Growth inhibition of human HL-60(TB) cells after 48 hrs by sulforhodamine B assay", "assay_type": "functional", "conditions": "HL-60, 48 h"}, "[21]": {"tested_on": "MOLT-4", "experiment": "Growth inhibition of human MOLT4 cells after 48 hrs by sulforhodamine B assay", "assay_type": "functional", "conditions": "MOLT-4, 48 h"}, "[22]": {"tested_on": "SF-268", "experiment": "Growth inhibition of human SF268 cells after 48 hrs by sulforhodamine B assay", "assay_type": "functional", "conditions": "SF-268, 48 h"}, "[23]": {"tested_on": "M14", "experiment": "Growth inhibition of human M14 cells after 48 hrs by sulforhodamine B assay", "assay_type": "functional", "conditions": "M14, 48 h"}, "[24]": {"conditions": "read-out: LC50 (the source's name)"}}, "note": "Active and inactive are the calls of the source. The calls are words filed in the database; no cut-off is given here."}
{"smiles": "Nc1nc(N)c2c(n1)NC(c1ccc(Cl)cc1)C1CCc3ccccc3C1=N2", "note": "(configuration not stated)", "values": [{"measurement": "growth inhibition (GI)", "setting": "[1]", "value": "inactive"}, {"measurement": "GI50", "setting": "[2]", "value": 0.5, "unit": "µM"}, {"measurement": "LC50", "setting": "[2]", "value": 6.56, "unit": "µM"}, {"measurement": "growth inhibition (GI)", "setting": "[3]", "value": "inactive"}, {"measurement": "GI50", "setting": "[4]", "value": 6.17, "unit": "µM"}, {"measurement": "CC50", "setting": "[4]", "value": 44.3, "unit": "µM"}, {"measurement": "growth inhibition (GI)", "setting": "[5]", "value": "inactive"}]}
{"smiles": "Nc1nc(N)c2c(n1)NC(c1ccc(F)cc1)C1CCc3ccccc3C1=N2", "note": "(configuration not stated)", "values": [{"measurement": "GI50", "setting": "[6]", "value": 7.45, "unit": "µM"}, {"measurement": "LC50 (50% lethal concentration)", "setting": "[6]", "value": 44.5, "unit": "µM"}, {"measurement": "growth inhibition (GI)", "setting": "[1]", "value": "inactive"}, {"measurement": "GI50", "setting": "[7]", "value": 8.07, "unit": "µM"}, {"measurement": "LC50 (concentration killing 50% of cells)", "setting": "[7]", "value": 80.7, "unit": "µM"}, {"measurement": "GI50", "setting": "[2]", "value": 0.609, "unit": "µM"}, {"measurement": "LC50", "setting": "[2]", "value": 6.03, "unit": "µM"}, {"measurement": "growth inhibition (GI)", "setting": "[3]", "value": "inactive"}, {"measurement": "GI50", "setting": "[8]", "value": 9.63, "unit": "µM"}, {"measurement": "CC50", "setting": "[8]; [24]", "value": 48, "unit": "µM"}, {"measurement": "GI50", "setting": "[4]", "value": 1.71, "unit": "µM"}, {"measurement": "CC50", "setting": "[4]", "value": 32, "unit": "µM"}, {"measurement": "GI50", "setting": "[9]", "value": 6, "unit": "µM"}, {"measurement": "LC50 (concentration killing 50% of cells)", "setting": "[9]", "value": 51.6, "unit": "µM"}, {"measurement": "GI50", "setting": "[10]", "value": 5.73, "unit": "µM"}, {"measurement": "LC50", "setting": "[10]", "value": 50.2, "unit": "µM"}, {"measurement": "growth inhibition (GI)", "setting": "[5]", "value": "inactive"}, {"measurement": "GI50", "setting": "[11]", "value": 6.9, "unit": "µM"}, {"measurement": "LC50 (50% lethal concentration)", "setting": "[11]", "value": 47.8, "unit": "µM"}, {"measurement": "GI50", "setting": "[12]", "value": 2.44, "unit": "µM"}, {"measurement": "LC50 (concentration killing 50% of cells)", "setting": "[12]", "value": 24.3, "unit": "µM"}]}
{"smiles": "Nc1nc(N)c2c(n1)NC(c1ccccc1)C1CCc3ccccc3C1=N2", "note": "(configuration not stated)", "values": [{"measurement": "GI50", "setting": "[6]", "value": 4.38, "unit": "µM"}, {"measurement": "LC50 (50% lethal concentration)", "setting": "[6]", "value": 42.1, "unit": "µM"}, {"measurement": "growth inhibition (GI)", "setting": "[1]", "value": "inactive"}, {"measurement": "GI50", "setting": "[13]", "value": 5.81, "unit": "µM"}, {"measurement": "CC50", "setting": "[13]; [24]", "value": 43.7, "unit": "µM"}, {"measurement": "GI50", "setting": "[7]", "value": 4.71, "unit": "µM"}, {"measurement": "LC50 (concentration killing 50% of cells)", "setting": "[7]", "value": "> 100", "unit": "µM"}, {"measurement": "GI50", "setting": "[2]", "value": 0.638, "unit": "µM"}, {"measurement": "LC50", "setting": "[2]", "value": 6.35, "unit": "µM"}, {"measurement": "GI50", "setting": "[14]", "value": 7.72, "unit": "µM"}, {"measurement": "CC50", "setting": "[14]; [24]", "value": 45.1, "unit": "µM"}, {"measurement": "growth inhibition (GI)", "setting": "[3]", "value": "inactive"}, {"measurement": "GI50", "setting": "[15]", "value": 7.11, "unit": "µM"}, {"measurement": "CC50", "setting": "[15]; [24]", "value": 82.2, "unit": "µM"}, {"measurement": "GI50", "setting": "[16]", "value": 3.42, "unit": "µM"}, {"measurement": "CC50", "setting": "[16]; [24]", "value": "> 100", "unit": "µM"}, {"measurement": "GI50", "setting": "[17]", "value": 5.85, "unit": "µM"}, {"measurement": "CC50", "setting": "[17]; [24]", "value": "> 100", "unit": "µM"}, {"measurement": "GI50", "setting": "[18]", "value": 7.95, "unit": "µM"}, {"measurement": "CC50", "setting": "[18]; [24]", "value": 45.6, "unit": "µM"}, {"measurement": "GI50", "setting": "[19]", "value": 4.47, "unit": "µM"}, {"measurement": "CC50", "setting": "[19]; [24]", "value": "> 100", "unit": "µM"}, {"measurement": "GI50", "setting": "[9]", "value": 7.87, "unit": "µM"}, {"measurement": "LC50 (concentration killing 50% of cells)", "setting": "[9]", "value": 49.7, "unit": "µM"}, {"measurement": "GI50", "setting": "[20]", "value": 2.37, "unit": "µM"}, {"measurement": "CC50", "setting": "[20]; [24]", "value": "> 100", "unit": "µM"}, {"measurement": "GI50", "setting": "[21]", "value": 2.7, "unit": "µM"}, {"measurement": "CC50", "setting": "[21]; [24]", "value": "> 100", "unit": "µM"}, {"measurement": "GI50", "setting": "[22]", "value": 6.96, "unit": "µM"}, {"measurement": "CC50", "setting": "[22]; [24]", "value": 45.7, "unit": "µM"}, {"measurement": "GI50", "setting": "[10]", "value": 3.48, "unit": "µM"}, {"measurement": "LC50", "setting": "[10]", "value": 43.6, "unit": "µM"}, {"measurement": "growth inhibition (GI)", "setting": "[5]", "value": "inactive"}, {"measurement": "GI50", "setting": "[11]", "value": 5.99, "unit": "µM"}, {"measurement": "LC50 (50% lethal concentration)", "setting": "[11]", "value": 45.7, "unit": "µM"}, {"measurement": "GI50", "setting": "[12]", "value": 3.82, "unit": "µM"}, {"measurement": "LC50 (concentration killing 50% of cells)", "setting": "[12]", "value": 41.2, "unit": "µM"}, {"measurement": "GI50", "setting": "[23]", "value": 4.88, "unit": "µM"}, {"measurement": "CC50", "setting": "[23]; [24]", "value": 44.2, "unit": "µM"}]}
